Molecular target: Human TRPA1 (Homo sapiens, UniProt O75762)
Assay: Alternative TRPA1 Ca2+ fluorometry assay (hTRPA1/TREx-HEK293 cells, Fluo-4, FDSS 6000)
Format: cell-based
Set-up: expressed in transfected cells
Settings: Fluo-4-AM, agonist 6,11-dihydro-5H-dibenzo[b,e]azepine-10-carboxylic acid methyl ester 25 nM, procedure used for Examples 184, 190 to 192, 194 to 316
Method in brief: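 Tetracycline-induced (50 ng/ml, 24 h) hTRPA1/TREx-HEK293 cells were loaded with Fluo-4-AM and probenecid. Compound (1% DMSO final) was added after a 12 s baseline and the Ca2+ signal followed for 14 min, then 25 nM TRPA1 agonist dibenzazepine carboxylic acid methyl ester was applied. Signal is Em540 (ex 488 nm) relative to the first baseline reading.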

Sequence of Human TRPA1 (O75762 whole entry): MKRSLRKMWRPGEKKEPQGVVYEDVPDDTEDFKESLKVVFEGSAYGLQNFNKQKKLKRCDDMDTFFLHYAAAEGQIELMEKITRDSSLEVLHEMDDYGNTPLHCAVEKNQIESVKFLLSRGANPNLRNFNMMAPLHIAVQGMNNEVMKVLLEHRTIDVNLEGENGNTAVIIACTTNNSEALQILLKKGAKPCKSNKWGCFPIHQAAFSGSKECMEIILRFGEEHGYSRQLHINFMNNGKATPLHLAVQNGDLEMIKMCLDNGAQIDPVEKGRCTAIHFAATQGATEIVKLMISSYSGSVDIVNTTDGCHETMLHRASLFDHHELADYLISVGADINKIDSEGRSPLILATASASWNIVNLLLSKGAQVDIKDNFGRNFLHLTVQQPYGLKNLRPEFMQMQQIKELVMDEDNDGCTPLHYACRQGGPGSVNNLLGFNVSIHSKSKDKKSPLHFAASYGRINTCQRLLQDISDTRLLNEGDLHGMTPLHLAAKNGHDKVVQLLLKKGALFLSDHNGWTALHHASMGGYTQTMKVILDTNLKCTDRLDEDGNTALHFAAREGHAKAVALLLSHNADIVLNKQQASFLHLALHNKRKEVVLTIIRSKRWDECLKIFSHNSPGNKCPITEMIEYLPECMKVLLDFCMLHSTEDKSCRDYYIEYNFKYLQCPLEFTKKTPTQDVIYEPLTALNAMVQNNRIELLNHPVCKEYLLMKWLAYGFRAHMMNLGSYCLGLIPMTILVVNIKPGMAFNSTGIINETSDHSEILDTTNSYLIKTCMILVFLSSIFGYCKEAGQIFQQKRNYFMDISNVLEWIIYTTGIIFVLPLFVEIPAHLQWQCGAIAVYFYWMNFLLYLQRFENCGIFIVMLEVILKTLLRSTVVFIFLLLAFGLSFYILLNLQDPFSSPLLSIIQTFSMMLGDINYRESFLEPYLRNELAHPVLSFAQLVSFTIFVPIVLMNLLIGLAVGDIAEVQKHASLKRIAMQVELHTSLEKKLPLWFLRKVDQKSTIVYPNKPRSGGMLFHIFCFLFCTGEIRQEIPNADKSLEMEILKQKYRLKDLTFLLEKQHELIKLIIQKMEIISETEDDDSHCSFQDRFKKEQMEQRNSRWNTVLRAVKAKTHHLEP

SMILES	IC50
CC1CCN(c2nc(CNC(=O)[C@@H]3CCCN3S(=O)(=O)c3ccc(F)cc3)cc(-c3ccc(Br)cc3)n2)CC1 [Example 296, 1-(4-Fluoro-benzenesulfonyl)-pyrrolidine-2S-carboxylic acid [6-(4-bromo-phenyl)-2-(4-methyl-piperidin-1-yl)-pyrimidin-4-ylmethyl]-amide]	4.47 µM
O=C(NCc1cc(-c2ccc(C(F)(F)F)cc2)nc(N2CCN(Cc3ccc4c(c3)OCO4)CC2)n1)[C@@H]1CCCN1S(=O)(=O)c1ccc(F)cc1 [Example 297, 1-(4-Fluoro-benzenesulfonyl)-pyrrolidine-2S-carboxylic acid [2-(4-benzo[1,3]dioxol-5-ylmethyl-piperazin-1-yl)-6-(4-trifluoromethyl-phenyl)-pyrimidin-4-ylmethyl]-amide]	0.355 µM
NC(=O)C1CCCN(c2nc(CNC(=O)[C@@H]3CCCN3S(=O)(=O)c3ccc(F)cc3)cc(-c3ccc(C(F)(F)F)cc3)n2)C1 (stereo partly drawn) [Example 298, 1-[4-({[1-(4-Fluoro-benzenesulfonyl)-pyrrolidine-2S-carbonyl]-amino}-methyl)-6-(4-trifluoromethyl-phenyl)-pyrimidin-2-yl]-piperidine-3-carboxylic acid amide]	4.68 µM
O=C(NCc1cc(-c2ccc(C(F)(F)F)cc2)nc(NCCC2C=Nc3ccccc32)n1)[C@@H]1CCCN1S(=O)(=O)c1ccc(F)cc1 (stereo partly drawn) [Example 299, 1-(4-Fluoro-benzenesulfonyl)-pyrrolidine-2S-carboxylic acid [2-[2-(3H-indol-3-yl)-ethylamino]-6-(4-trifluoromethyl-phenyl)-pyrimidin-4-ylmethyl]-amide]	~1.59 µM
O=C(NCc1cc(-c2ccc(Br)cc2)nc(N2CCN(c3ccc(F)cc3)CC2)n1)[C@@H]1CCCN1S(=O)(=O)c1ccc(F)cc1 [Example 300, 1-(4-Fluoro-benzenesulfonyl)-pyrrolidine-2S-carboxylic acid {6-(4-bromo-phenyl)-2-[4-(4-fluoro-phenyl)-piperazin-1-yl]-pyrimidin-4-ylmethyl}-amide]	2.51 µM
NS(=O)(=O)c1ccc(CCNc2nc(CNC(=O)[C@@H]3CCCN3S(=O)(=O)c3ccc(F)cc3)cc(-c3ccc(Br)cc3)n2)cc1 [Example 301, 1-(4-Fluoro-benzenesulfonyl)-pyrrolidine-2S-carboxylic acid {6-(4-bromo-phenyl)-2-[2-(4-sulfamoyl-phenyl)-ethylamino]-pyrimidin-4-ylmethyl}-amide]	5.62 µM
O=C(NCc1cc(-c2ccc(Br)cc2)nc(N2CCC[C@H]2CO)n1)[C@@H]1CCCN1S(=O)(=O)c1ccc(F)cc1 [Example 302, 1-(4-Fluoro-benzenesulfonyl)-pyrrolidine-2S-carboxylic acid [6-(4-bromo-phenyl)-2-(2S-hydroxymethyl-pyrrolidin-1-yl)-pyrimidin-4-ylmethyl]-amide]	8.71 µM
O=C(NCc1cc(-c2ccc(C(F)(F)F)cc2)nc(N2CCc3ccccc3C2)n1)[C@@H]1CCCN1S(=O)(=O)c1ccc(F)cc1 [Example 303, 1-(4-Fluoro-benzenesulfonyl)-pyrrolidine-2S-carboxylic acid [2-(3,4-dihydro-1H-isoquinolin-2-yl)-6-(4-trifluoromethyl-phenyl)-pyrimidin-4-ylmethyl]-amide]	~2.82 µM
O=C(NCc1cc(-c2ccc(C(F)(F)F)cc2)nc(N2CCN(c3ccc(F)cc3)CC2)n1)[C@@H]1CCCN1S(=O)(=O)c1ccc(F)cc1 [Example 304, 1-(4-Fluoro-benzenesulfonyl)-pyrrolidine-2S-carboxylic acid [2-[4-(4-fluoro-phenyl)-piperazin-1-yl]-6-(4-trifluoromethyl-phenyl)-pyrimidin-4-ylmethyl]-amide]	0.331 µM
O=C(NCc1cc(-c2ccc3c(c2)OCO3)nc(N2CCN(Cc3ccc4c(c3)OCO4)CC2)n1)[C@@H]1CCCN1S(=O)(=O)c1ccc(F)cc1 [Example 305, 1-(4-Fluoro-benzenesulfonyl)-pyrrolidine-2S-carboxylic acid [6-benzo[1,3]dioxol-5-yl-2-(4-benzo[1,3]dioxol-5-ylmethyl-piperazin-1-yl)-pyrimidin-4-ylmethyl]-amide]	~5.89 µM
CC1CCN(c2nc(CNC(=O)[C@@H]3CCCN3S(=O)(=O)c3ccc(F)cc3)cc(-c3ccc4c(c3)OCO4)n2)CC1 [Example 306, 1-(4-Fluoro-benzenesulfonyl)-pyrrolidine-2S-carboxylic acid [6-benzo[1,3]dioxol-5-yl-2-(4-methyl-piperidin-1-yl)-pyrimidin-4-ylmethyl]-amide]	~2.09 µM
O=C(NCc1cc(-c2ccc(C(F)(F)F)cc2)nc(NC2CCc3ccccc32)n1)[C@@H]1CCCN1S(=O)(=O)c1ccc(F)cc1 (stereo partly drawn) [Example 307, 1-(4-Fluoro-benzenesulfonyl)-pyrrolidine-2S-carboxylic acid [2-(indan-1-ylamino)-6-(4-trifluoromethyl-phenyl)-pyrimidin-4-ylmethyl]-amide]	~0.354 µM
CC(C)[C@@H](CO)Nc1nc(CNC(=O)[C@@H]2CCCN2S(=O)(=O)c2ccc(F)cc2)cc(-c2ccc(C(F)(F)F)cc2)n1 [Example 308, 1-(4-Fluoro-benzenesulfonyl)-pyrrolidine-2S-carboxylic acid [2-(1-hydroxymethyl-2-methyl-propylamino)-6-(4-trifluoromethyl-phenyl)-pyrimidin-4-ylmethyl]-amide]	1.78 µM
CC(=O)c1ccc(N2CCN(c3nc(CNC(=O)[C@@H]4CCCN4S(=O)(=O)c4ccc(F)cc4)cc(-c4ccc(C(F)(F)F)cc4)n3)CC2)cc1 [Example 309, 1-(4-Fluoro-benzenesulfonyl)-pyrrolidine-2S-carboxylic acid [2-[4-(4-acetyl-phenyl)-piperazin-1-yl]-6-(4-trifluoromethyl-phenyl)-pyrimidin-4-ylmethyl]-amide]	1.17 µM
CCCCNc1nc(CNC(=O)[C@@H]2CCCN2S(=O)(=O)c2ccc(F)cc2)cc(-c2ccc(C(F)(F)F)cc2)n1 [Example 310, 1-(4-Fluoro-benzenesulfonyl)-pyrrolidine-2S-carboxylic acid [2-butylamino-6-(4-trifluoromethyl-phenyl)-pyrimidin-4-ylmethyl]-amide]	0.407 µM
CC(Nc1nc(CNC(=O)[C@@H]2CCCN2S(=O)(=O)c2ccc(F)cc2)cc(-c2ccc3c(c2)OCO3)n1)c1ccccc1 (stereo partly drawn) [Example 311, 1-(4-Fluoro-benzenesulfonyl)-pyrrolidine-2S-carboxylic acid [6-benzo[1,3]dioxol-5-yl-2-(1-phenyl-ethylamino)-pyrimidin-4-ylmethyl]-amide]	~1.51 µM
O=C(NCc1cc(-c2ccc(C(F)(F)F)cc2)nc(NCCc2cccnc2)n1)[C@@H]1CCCN1S(=O)(=O)c1ccc(F)cc1 [Example 312, 1-(4-Fluoro-benzenesulfonyl)-pyrrolidine-2S-carboxylic acid [2-(2-pyridin-3-yl-ethylamino)-6-(4-trifluoromethyl-phenyl)-pyrimidin-4-ylmethyl]-amide]	0.295 µM
CC(Nc1nc(CNC(=O)[C@@H]2CCCN2S(=O)(=O)c2ccc(F)cc2)cc(-c2ccc(C(F)(F)F)cc2)n1)c1ccccc1 (stereo partly drawn) [Example 313, 1-(4-Fluoro-benzenesulfonyl)-pyrrolidine-2S-carboxylic acid [2-(1-phenyl-ethylamino)-6-(4-trifluoromethyl-phenyl)-pyrimidin-4-ylmethyl]-amide]	~0.489 µM
CN1CCN(c2nc(CNC(=O)[C@@H]3CCCN3S(=O)(=O)c3ccc(F)cc3)cc(-c3ccc(C(F)(F)F)cc3)n2)CC1 [Example 314, 1-(4-Fluoro-benzenesulfonyl)-pyrrolidine-2-carboxylic acid [2-(4-methyl-piperazin-1-yl)-6-(4-trifluoromethyl-phenyl)-pyrimidin-4-ylmethyl]-amide]	~1.32 µM
O=C(NCc1cc(-c2ccc(C(F)(F)F)cc2)nc(NCCN2CCOCC2)n1)[C@@H]1CCCN1S(=O)(=O)c1ccc(F)cc1 [Example 315, 1-(4-Fluoro-benzenesulfonyl)-pyrrolidine-2S-carboxylic acid [2-(2-morpholin-4-yl-ethylamino)-6-(4-trifluoromethyl-phenyl)-pyrimidin-4-ylmethyl]-amide]	~0.45 µM
O=C(NCc1cc(-c2ccc(Br)cc2)nc(NCCN2CCOCC2)n1)[C@@H]1CCCN1S(=O)(=O)c1ccc(F)cc1 [Example 316, 1-(4-Fluoro-benzenesulfonyl)-pyrrolidine-2S-carboxylic acid [6-(4-bromo-phenyl)-2-(2-morpholin-4-yl-ethylamino)-pyrimidin-4-ylmethyl]-amide]	1.45 µM
